Converted amounts (≈) assume the structure as drawn. The source made the active and inactive calls. The calls are words filed in the database; no cut-off is given here.
Key:
[1] = test system: Mycobacterium tuberculosis; test: Antimicrobial activity against Mycobacterium tuberculosis H37Rv by BACTEC radiometric method; assay type: functional
[2] = Selectivity index, ratio of CC50 for african green monkey Vero cells tp MIC for Mycobacterium tuberculosis H37Rv; assay type: functional
[3] = Lipophilicity, log P of the compound; assay type: physicochemical; conditions: octanol/water
[4] = Cytotoxicity against african green monkey Vero cells after 72 hrs by resazurin assay; assay type: cell-based; conditions: chlorocebus sabaeus
[5] = test system: Mycobacterium tuberculosis; test: Antimicrobial activity against compound-sensitive Mycobacterium tuberculosis 2280 by agar dilution method and BACTEC radiometric method; assay type: functional
[6] = test system: Mycobacterium tuberculosis; test: Antimicrobial activity against Mycobacterium tuberculosis H37Rv infected in BALB/c mouse assessed as log10 reduction of bacterial growth in lungs at 100 mg/kg, po administered 6 days a week for 30 days starting from 2 days post infection relative to untreated control; assay type: functional
[7] = test system: Mycobacterium tuberculosis; test: Antimicrobial activity against Mycobacterium tuberculosis H37Rv infected in mouse J774A.1 cells assessed as growth inhibition at MIC; assay type: functional
[8] = test system: Mycobacterium tuberculosis; assay type: functional, organism-based; conditions: H37Rv, 6.25 ug/ml
[9] = test system: Mycobacterium tuberculosis; test: Antimicrobial activity against Mycobacterium tuberculosis H37Rv infected in BALB/c mouse assessed as log10 reduction of bacterial growth in lungs at 25 mg/kg, po administered 6 days a week for 30 days starting from 2 days post infection relative to untreated control; assay type: functional

| Compound | MIC [1] | Selectivity Index [2] | logP [3] | CC50 at 72 h [4] | MIC [5] | log10cfu [6] | growth inhibition (GI) [7] | Activity [8] | log10cfu [9] |
| --- | --- | --- | --- | --- | --- | --- | --- | --- | --- |
| COc1cc(OCCN2CCCCCC2)c2c(c1)C(C)(C)[C@H](c1ccccc1)[C@H]2c1ccccc1 (relative stereo) | 3.12 µg/mL (≈ 6.65 µM) | 2.6 | 7.66 | 8.11 µg/mL (≈ 17.3 µM) | – | – | – | – | – |
| COc1cc(OCCCN(C)C)c2c(c1)C(C)(C)[C@H](c1ccccc1)[C@H]2c1ccccc1 (relative stereo) | 3.12 µg/mL (≈ 7.27 µM) | 1.4 | 6.62 | 4.59 µg/mL (≈ 10.7 µM) | – | – | – | – | – |
| COc1cc(OCCN2CCOCC2)c2c(c1)C(C)(C)[C@H](c1ccccc1)[C@H]2c1ccccc1 (relative stereo) | 3.12 µg/mL (≈ 6.83 µM) | 5.6 | 6.11 | 17.5 µg/mL (≈ 38.2 µM) | – | – | – | – | – |
| CCN(CC)CCOc1cc(OC)cc2c1[C@H](c1ccccc1)[C@@H](c1ccccc1)C2(C)C (relative stereo) | 3.12 µg/mL (≈ 7.04 µM) | 1.19 | 7.19 | 3.74 µg/mL (≈ 8.43 µM) | – | – | – | – | – |
| COc1cc(OCCN(C)C)c2c(c1)C(C)(C)[C@H](c1ccccc1)[C@H]2c1ccccc1 (relative stereo) | 6.25 µg/mL (≈ 15 µM) | 0.47 | 7.24 | 2.96 µg/mL (≈ 7.12 µM) | – | – | – | – | – |
| COc1cc(OCCN2CCCCC2)c2c(c1)C(C)(C)[C@H](c1ccccc1)[C@H]2c1ccccc1 (relative stereo) | 1.56 µg/mL (≈ 3.42 µM) | 1.54 | 6.57 | 2.41 µg/mL (≈ 5.29 µM) | – | – | – | – | – |
| COc1cc(OCCN2CCCCC2)c2c(c1)C(C)(C)[C@H](c1ccccc1)[C@H]2c1c(OC)ccc2ccccc12 (relative stereo) | 1.56 µg/mL (≈ 2.91 µM) | 3.53 | 8.11 | 5.52 µg/mL (≈ 10.3 µM) | – | – | – | – | – |
| COc1cc(OCCN2CCCC2)c2c(c1)C(C)(C)[C@H](c1ccccc1)[C@H]2c1ccccc1 (relative stereo) | 3.12 µg/mL (≈ 7.08 µM) | 2.39 | 6.83 | 7.49 µg/mL (≈ 17 µM) | – | – | – | – | – |
| COc1cc(OCCN(C(C)C)C(C)C)c2c(c1)C(C)(C)[C@H](c1ccccc1)[C@H]2c1ccccc1 (relative stereo) | 3.12 µg/mL (≈ 6.63 µM) | 15.73 | 7.82 | 49.2 µg/mL (≈ 104 µM) | 3.12 µg/mL (≈ 6.63 µM) | 1.35 | >90% | Active | – |
| COc1cc(OCCN2CCCCCC2)c2c(c1)C(C)(C)[C@H](c1ccccc1)[C@H]2c1c(OC)ccc2ccccc12 (relative stereo) | 1.56 µg/mL (≈ 2.84 µM) | 15.37 | 8.53 | 24 µg/mL (≈ 43.6 µM) | 1.56 µg/mL (≈ 2.84 µM) | – | – | – | – |
| CC[C@@H](CO)NCCN[C@@H](CC)CO [ETHAMBUTOL] | 0.5 µg/mL (≈ 2.45 µM) | 77.02 | 0.14 | 38.5 µg/mL (≈ 188 µM) | – | – | – | – | – |
| NNC(=O)c1ccncc1 [ISONIAZID] | – | – | – | – | – | – | – | – | 2.8 |
| CO[C@H]1/C=C/O[C@@]2(C)Oc3c(C)c(O)c4c(O)c(cc(O)c4c3C2=O)NC(=O)/C(C)=C\C=C\[C@H](C)[C@H](O)[C@@H](C)[C@@H](O)[C@@H](C)[C@H](OC(C)=O)[C@@H]1C [RIFAMYCIN] | 0.39 µg/mL (≈ 0.559 µM) | 160.1 | 3.71 | 62.5 µg/mL (≈ 89.5 µM) | – | – | – | – | – |

Reference: ChEMBL document CHEMBL2346660, “Synthesis and biological evaluation of trans 6-methoxy-1,1-dimethyl-2-phenyl-3-aryl-2,3-dihydro-1H-inden-4-yloxyalkylamine derivatives against drug susceptible, non-replicating M. tuberculosis H37Rv and clinical multidrug resistant strains” (Bioorg Med Chem Lett, 2013)
